Results published in patent US12503432B2, “Ionizable lipids for nucleic acid delivery” (Global Life Sciences Solutions Canada ULC, priority 2019, dated 2025).

Key:
[1] = TNS fluorescence assay: experimental pKa of formulated lipid nanoparticles; type: physicochemical; settings: experimental surface pKa of empty LNP, cationic lipid/DSPC/cholesterol/PEG-lipid (50/10/38.5/1.5)
Protocol: The pKa of each cationic lipid was determined in lipid nanoparticles using an assay based on fluorescence of 6-(p-Toluidino)-2-naphthalenesulfonic acid sodium salt (TNS, Sigma Aldrich), which is a fluorescent probe for the conformational state of proteins^5. Empty lipid nanoparticles comprising of cationic lipid/DSPC/cholesterol/PEG-lipid (50/10/38.5/1.5) in distilled water at a concentration of 3.125 mM total lipid are formulated using NanoAssemblr® Spark™, and were then was characterized for LNP quality on the Zetasizer™ using a 30× dilution with 1×PBS in the low volume cuvette. Lipid nanoparticles were further diluted 4× using distilled water to 0.781 mM total lipid. TNS was prepared as a 25 μM stock solution in distilled water. Then 6.4 μL of diluted LNP samples of 0.781 mM total lipid were mixed with 10 μL of diluted TNS to a final volume of 250 μL with buffer containing 10 mM HEPES, 10 mM MES, 10 mM NH4OAc and 130 mM NaCl where the pH ranged from 3 to 9 in 0.5 pH increments.
Samples were mixed thoroughly, and the fluorescence intensity was measured at room temperature in a BioTek™ Synergy™ H1 Hybrid Multi-Mode Monochromator™ Fluorescence Microplate Reader using excitation and emission wavelengths of 321 nm and 445 nm respectively. A sigmoidal best fit analysis was applied to the fluorescence data using GraphPad Prism™ software, and the pKa was measured as the pH at half-maximal fluorescence intensity.

primary human T cells = experiment: GFP mRNA LNP transfection of isolated primary human T cells, flow cytometry; type: cell-based; set-up: key to GFP Protein expression: Human T cell: *: The number of asterix symbols indicates protein expression levels interpreted by the inventors from quantitative data; **: The number of asterix symbols indicates protein expression levels interpreted by the inventors from quantitative data; ***: The number of asterix symbols indicates protein expression levels interpreted by the inventors from quantitative data; ****: The number of asterix symbols indicates protein expression levels interpreted by the inventors from quantitative data; *****: The number of asterix symbols indicates protein expression levels interpreted by the inventors from quantitative data; *******: The number of asterix symbols indicates protein expression levels interpreted by the inventors from quantitative data; settings: for GFP Protein expression: Human T cell: qualitative grade interpreted from quantitative data; for transfecting T cells in vitro, Mean Fluorescence Intensity (MFI): dose 500 ng, MC3 as control, FIG. 3
Protocol: Downstream processing and analysis of treated T cells were done with flow cytometry and ELISA. Reagents were from Stemcell Technologies, Vancouver, Canada unless otherwise stated. […] At 48H following LNP-mediated mRNA exposure, the treated T cells were harvested by transferring the cell suspensions to pre-labeled 1.5 mL tubes and centrifuged 300×G at 4 degrees C. for 10 minutes. Supernatant was removed and the pellet resuspended in PBS. An amount of 0.5 ul of BD Horizon™ Fixable Viability Stain 575V™ (BD Biosciences), was added, and the mixture incubated in the dark for 10 minutes at RT. This stain binds to intracellular amines of a permeable plasma cell membrane of a necrotic cell and can be used to differentiate a viable cell and a non-viable cell during a flow cytometry assay.
The cells were centrifuged again as before, then washed twice with 1 mL of Stain buffer (BSA, BD Pharminigen), and the washed pellet was placed in 100 μl BSA. The following antibodies were added to each tube of treated cells in 2 μl volumes: CD25, CD8, CD4, (PerCP-Cy™ 5.5 Mouse Anti Human CD25, BV786 Mouse Anti-Human CD8 Clone RPA-T8, and APC-Cy™7 Mouse Anti-Human CD4 Clone SK3, all from BD Pharmingen™) with the exception of the controls: in the eGFP only sample and viability control, no antibody was added. In the single stain compensation tubes, only one antibody per tube was added.
The tubes were incubated at 4 degrees C. for 30 min, whereupon 400 μl of stain buffer (BSA) was added, and the cells were centrifuged again. Cells were washed once with 1 mL of stain buffer and spun down again. Cell pellets were resuspended in 1 mL of stain buffer and added to pre-labeled flow tubes with cell strainer caps (Corning Falcon).
After transfection, flow cytometry was used to generate eGFP or EPO expression levels as well as MFI values for the studies. […]
After transfection, flow cytometry was used to general GFP expression levels as well as MFI values for the studies.
Ionizable lipids of the invention, and MC3, were compared in a composition of CT10 at an N/P ratio of 10 for their ability to induce transfection as measured by MFI of labeled mRNA in T cells (as measured by flow cytometry).
T Cells were prepared and treated as previously described using negative selection and the triple activation protocol.
In order to expose the isolated and activated T cells (Day 0) to the formulated mRNA, […] media, with 1 μg/mL of Recombinant Human ApoE4 (“ApoE”) (Peprotech Inc., Montreal, Canada).
The dose of mRNA LNP was calculated based upon Ribogreen™ assay results. T cells were counted through Trypan blue (Sigma) exclusion and diluted to 500,000 cells/mL. Briefly, in a 12 well plate, 1 mL was aliquoted into each well. ApoE was added to a final concentration of 1 μg/mL in each well. Based upon the calibration, the required amount of mRNA LNP was added (day 3 to 7), and the plate incubated for 48 hours.

Structure (SMILES) | pKa [1] | transfection efficiency in T cells from different donors (primary human T cells; CT10, N/P 10, 48 h after treatment, six donors, FIG. 2) | Cell viability (primary human T cells; CT10, N/P 10, compared to untreated cells (control)) | transfection efficiency (primary human T cells; CT10 composition, N/P 10, LNP 7 days post activation, FIG. 1) | GFP Protein expression: Human T cell (primary human T cells) | transfecting T cells in vitro, Mean Fluorescence Intensity (MFI) (primary human T cells; CT10 composition)
CC/C=C\CC1C(CC(=O)OCC(COCCCCCCCC/C=C\C/C=C\CCCCC)OCCCCCCCC/C=C\C/C=C\CCCCC)CCC1OC(=O)CCCN(C)C (centres unmarked) [PNI 101] | 6.37 | greater than those containing MC3 in six tested donors | unaffected | greater transfection efficiency than either DODMA or MC3 | **** | 
CC/C=C\CC1C(CC(=O)OCC(COCCCCCCCC/C=C\C/C=C\CCCCC)OCCCCCCCC/C=C\C/C=C\CCCCC)CCC1OC(=O)C1(C)CCN(C)CC1 (centres unmarked) [PNI 123] | 6.01 |  |  |  | *** | 
CC/C=C\CC1C(CC(=O)OCC(COCCCCCCCC/C=C\C/C=C\CCCCC)OCCCCCCCC/C=C\C/C=C\CCCCC)CCC1OC(=O)C1CCN(C)CC1 (centres unmarked) [PNI 132] | 6.1 |  |  |  | ******* | substantially as good or better than MC3
CC/C=C\CC1C(CC(=O)OC(CCCCCCCCC2CC2CCCCCCCC)CCCCCCCCC2CC2CCCCCCCC)CCC1OC(=O)CCCN(C)C (centres unmarked) [PNI 516] | 6.18 |  |  |  | ***** | 
CC/C=C\CC1C(CC(=O)OCC(COCCCCCCCC/C=C\C/C=C\CCCCC)OCCCCCCCC/C=C\C/C=C\CCCCC)CCC1OC(=O)CCCN(CC)CC (centres unmarked) [PNI 542] | 6.11 |  |  |  | ***** | 
CC/C=C\CC1C(CC(=O)OCC(COCCCCCCCCC2CC2CCCCCCCC)OCCCCCCCCC2CC2CCCCCCCC)CCC1OC(=O)CCN(C)C (centres unmarked) [PNI 544] | 5.68 |  |  |  | *** | 
CCCCCCCCC1CC1CCCCCCCCOCC(COC(=O)CC1CCC(OC(=O)CCCN(C)C)C1CC1CC1CC)OCCCCCCCCC1CC1CCCCCCCC (centres unmarked) [PNI 545] | 5.91 |  |  |  | ***** | 
CCCCCCCCC1CC1CCCCCCCCOCC(COC(=O)CC1CCC(OC(=O)CCN(C)C)C1CC1CC1CC)OCCCCCCCCC1CC1CCCCCCCC (centres unmarked) [PNI 546] | 4.84 |  |  |  | * | 
CC/C=C\CC1C(CC(=O)OC(CCCCCCCCC2CC2CCCCCCCC)CCCCCCCCC2CC2CCCCCCCC)CCC1OC(=O)CCN(C)C (centres unmarked) [PNI 549] | 5.27 |  |  |  | ** | 
CC/C=C\CC1C(CC(=O)OCCC(CCCCCCCC)OC(=O)C(CCCCCC)CCCCCCCC)CCC1OC(=O)CCN(C)C (centres unmarked) [PNI 554] | 5.52 |  |  |  | *** | 
CC/C=C\CC1C(CC(=O)OCC(COCCCCCCCC/C=C\C/C=C\CCCCC)OCCCCCCCC/C=C\C/C=C\CCCCC)CCC1OC(=O)CC1CCN(C)C1 (centres unmarked) [PNI 557] | 6.7 |  |  |  | *** | 
CC/C=C\CC1C(CC(=O)OCC(COCCCCCCCC/C=C\C/C=C\CCCCC)OCCCCCCCC/C=C\C/C=C\CCCCC)CCC1OC(=O)CCCN1CCCC1 (centres unmarked) [PNI 558] | 6.28 |  |  |  | * | 
CC/C=C\CC1C(CC(=O)OCC(COCCCCCCCC/C=C\C/C=C\CCCCC)OCCCCCCCC/C=C\C/C=C\CCCCC)CCC1OC(=O)CC1CCCCN1C (centres unmarked) [PNI 559] | 5.16 |  |  |  | ** | 
CC/C=C\CC1C(CC(=O)OC(CCCCCCCCC2CC2CCCCCCCC)CCCCCCCCC2CC2CCCCCCCC)CCC1OC(=O)C1(C)CCN(C)CC1 (centres unmarked) [PNI 560] | 5.7 |  |  |  | **** | 
CC/C=C\CC1C(CC(=O)OCCC(CCCCCCCC)OC(=O)C(CCCCCC)CCCCCCCC)CCC1OC(=O)C1(C)CCN(C)CC1 (centres unmarked) [PNI 565] | 5.99 |  |  |  | ******* | substantially as good or better than MC3
